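96-well plates; 48 h exposure; 5 concentrations. Endpoints by linear interpolation between flanking doses. Not reached: highest tested concentration assigned. GI50 = concentration required for 50% inhibition of growth. The concentration for full growth arrest is given as TGI.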
Key:
Test in all cases: NCI anticancer screen, dose series, 48 h
ACHN renal = tested on: ACHN renal
HS 578T breast = tested on: HS 578T breast
786-0 renal = tested on: 786-0 renal
NCI-H460 lung = tested on: NCI-H460 lung
MDA-MB-231 breast = tested on: MDA-MB-231 breast
SW-620 colon = tested on: SW-620 colon
NCI/ADR-RES ovarian = tested on: NCI/ADR-RES ovarian
UACC-62 melanoma = tested on: UACC-62 melanoma
SK-MEL-5 melanoma = tested on: SK-MEL-5 melanoma
PC-3 prostate = tested on: PC-3 prostate

| SMILES | GI50 (ACHN renal) [µM] | TGI (ACHN renal) [µM] | GI50 (HS 578T breast) [µM] | TGI (HS 578T breast) [µM] | GI50 (786-0 renal) [µM] | TGI (786-0 renal) [µM] | GI50 (NCI-H460 lung) [µM] | TGI (NCI-H460 lung) [µM] | GI50 (MDA-MB-231 breast) [µM] | TGI (MDA-MB-231 breast) [µM] | GI50 (SW-620 colon) [µM] | TGI (SW-620 colon) [µM] | GI50 (NCI/ADR-RES ovarian) [µM] | TGI (NCI/ADR-RES ovarian) [µM] | GI50 (UACC-62 melanoma) [µM] | TGI (UACC-62 melanoma) [µM] | GI50 (SK-MEL-5 melanoma) [µM] | TGI (SK-MEL-5 melanoma) [µM] | GI50 (PC-3 prostate) [µM] | TGI (PC-3 prostate) [µM] |
| --- | --- | --- | --- | --- | --- | --- | --- | --- | --- | --- | --- | --- | --- | --- | --- | --- | --- | --- | --- | --- |
| CCCCNc1ncnc2c1cnn2-c1ccccc1 | 9.6 | > 100 | 3.48 | 58.2 | 8.9 | 53 | 1.61 | > 43.1 | 16.9 | 73 | 0.709 | > 100 | 0.514 | 5.26 | 5.04 | > 100 | 1.19 | 11.1 | 2.38 | 56.9 |
| Fc1ccccc1CN1COc2c(cc(Cl)c3cccnc23)C1 | – | 10.3 | – | 20.8 | – | 21.5 | – | > 100 | – | 4.3 | – | 18.4 | – | 0.54 | – | 1.74 | – | 3.75 | – | 10.6 |
| CC(C)(Oc1ccc(-c2cccc3ccccc23)cc1)C(=O)O | – | > 100 | – | > 100 | – | > 100 | – | > 100 | – | > 100 | – | > 100 | – | > 100 | – | > 100 | – | > 100 | – | > 100 |
| [O]=[Sn]([CH]1CCCCC1)[CH]1CCCCC1 | 0.309 | 1.12 | 0.266 | 1.52 | 0.214 | 0.456 | 0.389 | 1.43 | 0.28 | 1.04 | 0.0934 | 0.238 | 0.357 | 1.63 | 0.208 | 0.743 | 0.259 | 1.14 | 0.517 | 1.94 |
| Nc1ncn([C@H]2CC(O)[C@@H](CO)S2)c(=O)n1 (stereo not given in full) | 0.266 | > 100 | 39.3 | > 100 | 13.9 | > 100 | 0.685 | > 100 | 3.57 | > 100 | 1.48 | > 100 | 0.559 | > 100 | 8.51 | > 100 | 1.17 | > 100 | 8.93 | > 100 |
| O=C(/C=C/c1ccc(O)c(O)c1)N1CCN(c2ccc(Cl)cc2)CC1 | 4.01 | 38.2 | 8.04 | 49.4 | 9.39 | 37 | 4.79 | 21.5 | 5.28 | 35.6 | 7.28 | 81.4 | 4.61 | 32.9 | 6.36 | 23.3 | 2.65 | 10.2 | 4.67 | 31.1 |
| CN1CCCCC1CCN1c2ccccc2Sc2ccc(Br)cc21 (stereo not given) | 3.54 | 11.9 | 2.06 | 5.85 | 2.14 | 4.79 | 2.29 | 5.01 | 1.8 | 4.18 | 2.08 | 5.04 | 1.98 | 4.13 | 1.83 | 4.1 | 1.78 | 3.47 | 2.81 | 8.76 |

— PubChem BioAssay (NCI)
